Test systems include UO-31; HCT-15; NCI/ADR-RES; SW-620; NCI-H460; SK-MEL-5; NCI-H23; SR; EKVX; SF-268; NCI-H226; MDA-MB-231; PC-3; HOP-62; SN12C; KM12; 786-0; U-251; SK-MEL-2; OVCAR-3.
Test in all cases: NCI-60 cell line screen, 48 h

Four compounds from ChEMBL document CHEMBL1201862, “PubChem BioAssay data set” (2004) can be followed below.

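1) Cells in 96-well plates. 2) Compound, 48 h, 5 concentrations. 3) Linear interpolation between surrounding doses. 4) Unreached endpoint = highest concentration. GI50: concentration for 50% inhibition of growth.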 Activity calls are given as the source filed them. Cut-off read from the data, not from the text of the source: active = GI50 up to about 1.1 µM and inactive = higher.

Turning to `O=C1NNC2(C(=O)N1)c1ccccc1-c1ccccc12`, the GI50 with UO-31 is > 10 µM (inactive); with HCT-15 it was over 10 µM; in the assay with NCI/ADR-RES, > 10 µM (inactive); with SW-620, > 10 µM (inactive); with NCI-H460, > 10 µM (inactive); in the assay on SK-MEL-5, > 10 µM (inactive). In addition, the GI50 in the assay with NCI-H23 was > 10 µM (inactive); with SR, > 10 µM (inactive); in the assay on EKVX, 6.71 µM (inactive); in the assay with SF-268, > 10 µM (inactive); in the assay on NCI-H226 it was > 10 µM (inactive); in the assay with MDA-MB-231, > 10 µM (inactive). Besides, the GI50 in the assay on PC-3, in the assay with HOP-62, in the assay with SN12C, in the assay on KM12 and in the assay with 786-0 was > 10 µM (inactive) throughout.
Regarding `CCOP(=O)(OCC)Oc1c(OC)c2[nH]c(C(=O)OC)cc2c2c(C(=O)O)c[nH]c12`, the GI50 in the assay on UO-31 was > 100 µM (inactive); with HCT-15, over 100 µM; in the assay on NCI/ADR-RES, > 100 µM (inactive); in the assay with SW-620, > 100 µM (inactive); with NCI-H460, > 100 µM (inactive); with SK-MEL-5, > 100 µM (inactive). In addition, the GI50 in the assay with NCI-H23, in the assay with SR, in the assay with U-251, in the assay with SK-MEL-2, in the assay with EKVX and in the assay on OVCAR-3 was > 100 µM (inactive) in each case. The GI50 in the assay with SF-268 was > 100 µM (inactive); in the assay with MDA-MB-231, > 100 µM (inactive); in the assay on PC-3, > 100 µM (inactive); with HOP-62 it was > 100 µM (inactive); with SN12C, > 100 µM (inactive); with KM12, 28.6 µM (inactive). The GI50 in the assay with 786-0 is > 100 µM (inactive).
As for `O=[N+]([O-])/C=C/c1cccc(F)c1`, the GI50 with UO-31 is 2.54 µM (inactive); in the assay on HCT-15, 2.21 µM; in the assay on NCI/ADR-RES, 13.1 µM (inactive); in the assay on SW-620, 2.58 µM (inactive); in the assay with NCI-H460, 12.2 µM (inactive); in the assay on SK-MEL-5, 4.5 µM (inactive). For the same compound, the GI50 in the assay with NCI-H23 is 3.48 µM (inactive); in the assay with U-251, 3.53 µM (inactive); in the assay on SK-MEL-2, 12.4 µM (inactive); with EKVX, 3.03 µM (inactive); in the assay on OVCAR-3 it was 2.39 µM (inactive); with SF-268, 12.4 µM (inactive). Besides, the GI50 in the assay on NCI-H226 is 2.25 µM (inactive); in the assay on MDA-MB-231, 16.4 µM (inactive); in the assay on PC-3, 3.01 µM (inactive); with HOP-62, 10.3 µM (inactive); in the assay with SN12C, 17 µM (inactive); in the assay with KM12 it was 2.95 µM (inactive). Further, the GI50 in the assay on 786-0 is 1.66 µM (inactive).
As to `O=C(O)C(Cc1c[nH]c2ccccc12)N1C(=O)c2ccccc2C1=O` (centres undefined), the GI50 in the assay on UO-31 is > 100 µM (inactive); with HCT-15, over 100 µM; in the assay with NCI/ADR-RES it was > 100 µM (inactive); in the assay on SW-620 it was > 100 µM (inactive); in the assay on NCI-H460, > 100 µM (inactive); in the assay with SK-MEL-5, > 100 µM (inactive). Besides, the GI50 in the assay on NCI-H23, in the assay with U-251, with SK-MEL-2, in the assay on EKVX, in the assay with OVCAR-3 and with SF-268 was > 100 µM (inactive) throughout. For the same compound, the GI50 in the assay with NCI-H226, in the assay with MDA-MB-231, with PC-3, with HOP-62, in the assay on SN12C and in the assay on KM12 was > 100 µM (inactive) throughout. Moreover, in the assay with 786-0, the GI50 was > 100 µM (inactive).
